Assay results: ChEMBL document CHEMBL1129248, “7-[3-(1-piperidinyl)propoxy]chromenones as potential atypical antipsychotics” (1996)

Key:
Mus musculus [1] = experiment: Inhibition of apomorphine-induced climbing behavior in mice, after peroral administration; format: functional; conditions: po
Mus musculus [2] = experiment: Inhibition of apomorphine-induced Hyperactivity in mice, after Intraperitoneal administration; format: functional; conditions: ip
[3] = Inhibition of apomorphine-induced climbing behavior in mice, after intraperitoneal administration; format: functional; conditions: Mus musculus, ip
Rattus norvegicus [4] = experiment: Percent inhibition of apomorphine-induced stereotypy in rat after an intraperitoneal dose of 50 mg/kg; format: functional; conditions: ip
[5] = Inhibition of apomorphine-induced hyperactivity in mice after peroral administration; format: functional; conditions: Mus musculus, po
Mus musculus [6] = experiment: Inhibition of apomorphine-induced hyperactivity in mice, after peroral administration; format: functional; conditions: po
Mus musculus [7] = experiment: Inhibition of apomorphine-induced hyperactivity in mice, after peroral administration; conditions: po
Rattus norvegicus [8] = organism: Rattus norvegicus; experiment: Dose required to induce 50% maximum catalepsy in rat; format: functional
Rattus norvegicus [9] = experiment: Inhibition of apomorphine-induced stereotypy in rat after peroral administration; format: functional; conditions: po
[10] = (§1) Inhibition of apomorphine-induced climbing behavior in mice, after Intraperitoneal administration; format: functional; conditions: Mus musculus, ip
Rattus norvegicus [11] = experiment: Inhibition of apomorphine-induced stereotypy in rat, after peroral administration; format: functional; conditions: po
[12] = Inhibition of apomorphine-induced hyperactivity behavior in mice, after peroral administration; format: functional; conditions: Mus musculus, po
Rattus norvegicus [13] = experiment: Dose required to induce 50% maximum catalepsy in rat administered perorally; format: functional; conditions: po
Rattus norvegicus [14] = experiment: Inhibition of apomorphine-induced stereotypy in Rat, after peroral administration; format: functional; conditions: po
Rattus norvegicus [15] = organism: Rattus norvegicus; experiment: Dose required to induce 50% maximum catalepsy in rat
Mus musculus [16] = experiment: as §1; format: functional; conditions: ip

Compound | ED50 (Mus musculus [1]) | ED50 (Mus musculus [2]) | ED50 [3] | inhibition in vivo at 50 mg/kg (Rattus norvegicus [4]) | ED50 [5] | other results
O=C(CCCN1CCC(Cc2ccccc2)CC1)c1ccc(F)cc1 | 15.2 mg/kg | 12.3 mg/kg | 2.85 mg/kg | 46% | – | –
CC1CN(C(=O)c2ccc(F)cc2)CCN1CCCC(=O)c1ccc(F)cc1 (configuration not stated) | > 200 mg/kg | > 50 mg/kg | > 50 mg/kg | 22% | > 200 mg/kg | –
CC1CN(Cc2ccccc2)CCN1CCCC(=O)c1ccc(F)cc1 (configuration not stated) | > 200 mg/kg | 30 mg/kg | 28.2 mg/kg | 30% | – | ED50 (Mus musculus [6]): > 200 mg/kg
CC1CN(Cc2ccc(F)cc2)CCN1CCCC(=O)c1ccc(F)cc1 (configuration not stated) | > 200 mg/kg | 45 mg/kg | > 50 mg/kg | 19% | > 200 mg/kg | –
CC1CN(C(=O)c2ccc(F)cc2)CCN1CCCC(O)c1ccc(F)cc1 (configuration not stated) | > 200 mg/kg | > 50 mg/kg | > 50 mg/kg | 0% | > 200 mg/kg | –
CN1CCN(C2=Nc3cc(Cl)ccc3Nc3ccccc32)CC1 [CLOZAPINE] | – | – | – | – | – | ED50 (Mus musculus [7]): 11 mg/kg; ED50 (Rattus norvegicus [8]): 107 mg/kg; ED50 (Rattus norvegicus [9]): 85.3 mg/kg; ED50 [10]: 7.7 mg/kg
CC1CN(Cc2ccc(F)cc2)CCN1CCCC(O)c1ccc(F)cc1 (configuration not stated) | > 200 mg/kg | 50 mg/kg | 30 mg/kg | 48% | > 200 mg/kg | –
CCN1CCC[C@H]1CNC(=O)c1c(OC)ccc(Br)c1OC [REMOXIPRIDE] | – | – | 5.2 mg/kg | – | – | ED50 (Rattus norvegicus [11]): 48.7 mg/kg; ED50 [12]: 11.1 mg/kg; ED50 (Rattus norvegicus [13]): 64.3 mg/kg
Cc1nc2n(c(=O)c1CCN1CCC(c3noc4cc(F)ccc34)CC1)CCCC2 [RISPERIDONE] | 0.74 mg/kg | – | – | – | – | ED50 (Rattus norvegicus [14]): 3.8 mg/kg; ED50 (Rattus norvegicus [15]): 5 mg/kg; ED50 (Mus musculus [16]): 0.2 mg/kg
O=C(c1ccc(F)cc1)C1CCN(CCCOc2ccc(F)cc2)CC1 | 4.3 mg/kg | 1.15 mg/kg | – | – | 4.9 mg/kg | ED50 [10]: 1.82 mg/kg
O=C(c1ccc(F)cc1)C1CCN(CCCOc2ccc3c(=O)c(CO)coc3c2)CC1 | – | – | – | – | – | ED50 (Rattus norvegicus [11]): 35.9 mg/kg; ED50 [12]: 1.32 mg/kg; ED50 (Rattus norvegicus [13]): 14 mg/kg
O=C(CCCN1CCC(O)(c2ccc(Cl)cc2)CC1)c1ccc(F)cc1 [HALOPERIDOL] | – | – | – | – | – | ED50 (Rattus norvegicus [14]): 1.95 mg/kg; ED50 (Mus musculus [7]): 0.56 mg/kg; ED50 (Rattus norvegicus [8]): 2.5 mg/kg; ED50 [10]: 0.21 mg/kg
CC1CN(Cc2ccccc2)CCN1CCCC(O)c1ccc(F)cc1 (configuration not stated) | > 200 mg/kg | 35 mg/kg | > 50 mg/kg | 16% | > 200 mg/kg | –
